Experimental data from PubChem BioAssay AID248 (DTP/NCI, 2004).
Toxic doses and inconclusive results are not listed. Cut-off read from the data, not from the text of the source: active = T/C of 150% or more; inactive = T/C below 125%.

Test system: L1210 leukemia ip in BDF1 mice, survival T/C
Assay: NCI In Vivo Anticancer Drug Screen. Data for tumor model L1210 Leukemia (intraperitoneal) in B6D2F1 (BDF1) mice
Conditions: endpoint: mean survival time, higher = longer survival
Summary of the method: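 Tumor was transplanted into mice, which were then dosed with test compound or vehicle alone. Survival was recorded for each group, and the treated figure was expressed relative to the control figure.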

Measured: T/C

OCC(c1ccccc1)[P+](c1ccccc1)(c1ccccc1)c1ccccc1 (stereo unspecified)
inactive: dose: 5.0 mg/kg/injection, schedule: Q01DX001 (ip), vehicle: saline 94 % of control | dose: 10.0 mg/kg/injection, schedule: Q01DX001 (ip), vehicle: saline 97 % of control | dose: 20.0 mg/kg/injection, schedule: Q01DX001 (ip), vehicle: saline 103 % of control | dose: 40.0 mg/kg/injection, schedule: Q01DX001 (ip), vehicle: saline 97 % of control | dose: 80.0 mg/kg/injection, schedule: Q01DX001 (ip), vehicle: saline 97 % of control

CNc1ccn(C2CCCO2)c(=O)n1 (stereo unspecified)
inactive: dose: 100.0 mg/kg/injection, schedule: Q01DX001 (ip), vehicle: saline 104 % of control | dose: 200.0 mg/kg/injection, schedule: Q01DX001 (ip), vehicle: saline 104 % of control | dose: 400.0 mg/kg/injection, schedule: Q01DX001 (ip), vehicle: saline 104 % of control

O=[N+]([O-])c1ccc(-n2ccnc2)c([N+](=O)[O-])c1
inactive: dose: 100.0 mg/kg/injection, schedule: Q04DX002 (ip), vehicle: Klucel (hydroxypropylcellulose) (HPC) 100 % of control | dose: 200.0 mg/kg/injection, schedule: Q04DX002 (ip), vehicle: Klucel (hydroxypropylcellulose) (HPC) 100 % of control | dose: 400.0 mg/kg/injection, schedule: Q04DX002 (ip), vehicle: Klucel (hydroxypropylcellulose) (HPC) 93 % of control
